Values quoted from earlier work as cited in patent US20250144059A1, “GUANIDINOACETIC ACID, ITS DERIVATES, COMPOSITIONS AND METHODS OF USE THEREOF” (priority 2023, published 2025).

Settings: Merck Index 15th Edition 2013, item #4530

- solubility in water: fairly soluble in water
SMILES: N=C(N)NCC(=O)O [Number G10, guanidinoacetic acid]
